Values quoted from earlier work in patent US10499664B2, “Fish feed formulation of Hypericum perforatum, Rosamarinus officianalis or a mixture thereof” (UNIVERSIDAD DE SANTIAGO DE CHILE, priority 2015, dated 2019).

Assays:
Conditions in all cases: pre-treatment, inflamed mouse ears
IL-1β = system: IL-1β
TNF-α = system: TNF-α
COX-2 = system: COX-2

SMILES	IL-1β gene expression (IL-1β)	TNF-α gene expression (TNF-α)	COX-2 inhibition (COX-2)
CC(C)c1cc2c(c(O)c1O)[C@@]13CCCC(C)(C)[C@@H]1C[C@@H]2OC3=O [carnosol]	reducing their expression	reducing their expression	selectively inhibiting
CC(C)c1cc2c(c(O)c1O)[C@@]1(C(=O)O)CCCC(C)(C)[C@@H]1CC2 [carnosic acid]	reducing their expression	reducing their expression	selectively inhibiting
